{"source": "patent US7067633B2", "about": "“Targeting cellular entry, cell survival, and pathogenicity by dynein light chain 1/PIN in human cells” (Board of Regents, The University of Texas System, priority 2003, dated 2006)", "key": {"SKBR-3 cells": {"test_system": "SKBR-3 cells", "assay": "Pak1-mediated macropinocytosis, vesicle formation by confocal microscopy", "format": "cell-based, human", "details": "cotransfected with GFP-Pak1", "description": "FIG. 3—Requirement of DLC1/PIN in Pak1 mediated macropinocytosis. SKBR-3 cells were cotransfected with RFP-DLC1/PIN and GFP-Pak1 (upper panel), RFP-DLC1/PIN-S88A, and GFP-Pak1 (middle panel) and RFP-DLC1-1-66, and GFP-Pak1 (lower panel). Vesicle formation and localization of GFP and RFP proteins were analyzed by confocal microscopy. Ten randomly selected fields were analyzed for each condition. The experiment was repeated twice with similar results. Quantitation of vesicles formation was done using the following scoring system. −, cells containing 0–9 vesicles; +, cells containing 10–20 vesicles; and ++, cells containing >20 vesicles.\nRequirement of DLC1/PIN in Pak1 mediated macropinocytosis. […] The inventors have used the fluorescein isothiocyanate (FITC)-labeled Dextran as a marker of endocytosis using a well-established dextran beads uptake assay (Dharmawardhane et al., 2000). […]\nSK-BR3 cells were cotransfected with RFP-DLC1 and GFP-Pak1 (upper panel), RFP-DLC1-S88A and GFP-Pak1 (middle panel), and RFP-DLC8-1-66 and GFP-Pak1 (bottom panel). Vesicle formation and localization of GFP and RFP proteins were analyzed by confocal microscopy. Ten randomly selected fields were analyzed for each condition. […]"}, "NIH3T3 cells": {"test_system": "NIH3T3 cells", "assay": "UV-induced apoptosis, Lamin A/C nuclear integrity scoring", "format": "cell-based, murine", "description": "FIGS. 5A–5C—Requirement of DLC1/PIN and Pak1 interaction in cell proliferation and survival. FIG. 5A: Equal number of cells ZR75R stable cells expressing DLC1/PIN wild type or DLC1/PIN^del88-89 mutant were plated and cell proliferation was determined by trypsinizing and counting cells using a coulter counter. Each colne was plated in triplicate and experiment was repeated twice with similar results. FIG. 5B: Cell cycle progression of DLC1/PIN wild type or mutant clones was analyzed by FACS analysis. […] For example, a smooth nuclear membrane was scored as nonapoptotic, as opposed to membrane blebbing or rupture, which was scored as apoptotic. Nuclei committed to enter mitosis were not scored in either of these groups because they were easily identified for their specific “pulverized” pattern of Lamin A/C staining. Ten randomly selected fields were analyzed for each condition. […]\nDLC1/PIN regulation of cell growth and survival. […] After 10 h, apoptosis was quantitated by scoring the integrity of the nuclear membrane in cells expressing both RFP and myc tags to detect DLC/DLC1/PIN and Pak1 respectively (FIG. 5D)."}, "DLC1-ER interaction": {"test_system": "DLC1-ER interaction", "assay": "Coimmunoprecipitation of DLC1 with ER", "format": "cell-based, human", "details": "growth factor stimulation", "description": "In vitro-translated ^35ER were incubated with GST-DLC1, and analyzed by SDS-PAGE and autoradiography. FIG. 13B: Identification of ER domains that interact with DLC1. GST-ER fusion proteins containing different deletion constructs were incubated with in vitro-translated 35S-DLC1 (aa 1-89), and binding was analyzed by GST pull-down assay. FIG. 13C: Mapping of the ER-binding region in DLC1. GST-fusions of various DLC1 deletion constructs were incubated with in vitro-translated ^35S-ER, and binding was analyzed by GST pull-down assay. […] Cell lysates from Ishikawa cells was immunoprecipitated (IP) with anti-ERá mAb and immunoblotted with anti-DLC1 or ER Abs. […] Cell lysates from MCF-7/TAM-sen or Ishikawa cells were treated with Tam (10^−9M) for 24 h, and IP with anti-ERá mAb and immunoblotted with anti-DLC1 or ER Abs. […] MCF-7/DLC1 cells were treated with or without Dox for 24 h and then treated with E2 (10^−9M) or Tam (10^−8M) for 24 h, and IP with anti-ERá mAb and immunoblotted with anti-DLC1 or ER Abs. FIG. 13G: Characterization of MCF-7 cells expressing T7-DLC1-Ser88A mutant under a tetracycline-inducible promoter. […] MCF-7/DLC1 and MCF-7/DLC1-Ser88A cells were treated with or without Dox for 24 h and cell lysates were IP with anti-ERá mAb and blotted with anti-DLC1, ERá and T7 Abs.\nTo this end, MCF-7 cells expressing a T7-DLC1 mutant in which Ser88 and amino acid 89 were deleted under a tet-inducible promoter (MCF-7/DLC1-1-87 mutant) were generated (FIG. 13G)."}, "DLC1/PIN": {"test_system": "DLC1/PIN", "assay": "In vivo 32P-orthophosphate labeling and immunoprecipitation of T7-DLC1/PIN", "format": "cell-based, human", "details": "MCF-7 cells, EGF treatment", "description": "FIGS. 2A–2G—MapDLC1/PINg of interaction domains of Pak1 and DLC1/PIN. FIG. 2A: Identification of Pak1 domains that interact with DLC1/PIN. GST-Pak1 fusion proteins containing wild-type (amino acids 1–545), kinase domain (amino acids 270–545), N-terminal domain (amino acids 1–132), PIX binding domain (amino acids 132–270), Nck-binding domain (amino acids 1–75), Cdc42/Rac-interacting (CRIB) domain (amino acids 52–132), and auto-inhibitory domain (amino acids 75–149) were incubated with in vitro translated DLC1/PIN (amino acids 1–89), and binding was analyzed by GST pull-down assay. FIG. 2B: Identification of the DLC1/PIN region that is involved in the binding of Pak1. GST-fusions of various lengths of DLC1/PIN were used in the GST pull-down assay using ^35S-labelled Pak1 (amino acids 1–545). FIGS. 2C–2G—Pak1 phosphorylation of DLC1/PIN. FIG. 2C: In vitro kinase assay using GST-DLC1/PIN as a substrate and purified bacterially expressed Pak1 as an enzyme. MBP was used as a positive control. FIG. 2D: ZR75R cells stably expressing T7-DLC1/PIN were labeled in vivo with ^32P-orthophosphate, serum starved, treated with EGF or HRG, and immunoprecipitated and phosphorylation status of DLC1/PIN was visualized by autoradiography. […] Cells were metabolically labeled with ^32P orthophosphate, treated with or without EGF (1 nM) and phosphorylation of T7-DLC1/PIN was analyzed by immunoprecipitation. […]"}, "MDA-MB231 cells": {"test_system": "MDA-MB231 cells", "assay": "Vesicle formation and DLC1/PIN-Pak1 colocalization after growth factor stimulation", "format": "cell-based, human", "details": "serum-starved cells, 20 min"}, "DLC1": {"test_system": "DLC1", "assay": "DLC1 protein and mRNA expression", "format": "cell-based, human", "details": "MCF-7 cells", "procedure": "MCF-7/Tam-sen, MCF-7/TAMR1 and Ishikawa cells were treated with E2 (10^−9M) or Tam (10^−9M) for 24 h, and cell lysates were assayed for DLC1 and Pak1 protein expression. […] FIG. 21C: Effect of different periods of E2 treatment and cycloheximide (CHX) and Actinomycin D (ACTD) treatment on the ability of E2 to upregulate DLC1 mRNA in MCF-7 cells."}}, "note": "Starred links: 1 amine or outer side, 2 acyl side, 3 side chain; linkers in the order of their positions; H or OH if unused. Positions of bridges follow the written chain, without caps; N, C: chain ends. Non-standard residues stand in square brackets, D forms with d. Residues, ends and D or L forms follow the SMILES beside them. Chains are numbered I, II in the order given. Actinocin(9to1) = Cc1c2oc3c(C)ccc(C(=O)[*:1])c3nc-2c(C(=O)[*:2])c(N)c1=O; NMeV = CN[C@H](C(=O)O)C(C)C; Sar = CNCC(=O)O", "data": [{"molecule": "S88A DLC1/PIN: DLC1/PIN mutant, serine 88 to alanine, lacking the Pak1 phosphorylation site", "values": [{"measurement": "Pak1-induced vesicle formation", "setting": "SKBR-3 cells", "result": "substantially interfered"}, {"measurement": "UV-induced apoptosis substantially reduced", "setting": "NIH3T3 cells; 10 h after UV-irradiation", "result": "not"}, {"measurement": "protection from UV-induced apoptosis by overexpression of active Pak1", "setting": "NIH3T3 cells; cotransfected with catalytically active Pak1", "result": "unable to protect"}]}, {"molecule": "EGF: epidermal growth factor, physiologic Pak1 activator", "values": [{"measurement": "interaction of DLC1 with ER", "setting": "DLC1-ER interaction; tamoxifen-resistant Ishikawa cells", "result": "promotes"}, {"measurement": "interaction of DLC1 with ER", "setting": "DLC1-ER interaction; tamoxifen-sensitive MCF-7 cells", "result": "not"}, {"measurement": "DLC1/PIN phosphorylation", "setting": "DLC1/PIN", "result": "stimulated DLC1/PIN phosphorylation"}, {"measurement": "vesicle-like structures with colocalization of DLC1/PIN and Pak1", "setting": "MDA-MB231 cells", "result": "substantial enhancement of vesicle-like structures"}]}, {"molecule": "Cc1c2oc3c(C)ccc(C(=O)N[C@@H]4C(=O)N[C@H](C(C)C)C(=O)N5CCC[C@H]5C(=O)N(C)CC(=O)N(C)[C@@H](C(C)C)C(=O)O[C@@H]4C)c3nc-2c(C(=O)N[C@@H]2C(=O)N[C@H](C(C)C)C(=O)N3CCC[C@H]3C(=O)N(C)CC(=O)N(C)[C@@H](C(C)C)C(=O)O[C@@H]2C)c(N)c1=O", "note": "[actinomycin D] (I: T[dV]P[Sar][NMeV] / II: T[dV]P[Sar][NMeV]; ester I:1-I:C, II:1-II:C; linker I:N-II:N via Actinocin(9to1))", "values": [{"measurement": "estrogen-induced DLC1 expression", "setting": "DLC1", "result": "effectively blocked"}]}, {"molecule": "C[C@]12CC[C@@H]3c4ccc(O)cc4C[C@@H](CCCCCCCCC[S+]([O-])CCCC(F)(F)C(F)(F)F)[C@H]3[C@@H]1CC[C@@H]2O", "note": "(stereo partly drawn) [ICI 182,780]", "values": [{"measurement": "estrogen-induced DLC1 expression", "setting": "DLC1", "result": "effectively blocked"}]}]}
